One data set concerns HIV-1 WT virus (NL4-3). The data set can be described thus: microbe, parasite or virus in culture. In kind it is cell-based. The conditions noted are these: for EC50: Human immunodeficiency virus 1, NL43, CEM-SS, read-out: EC50. On the procedure: Evaluation of these compounds for the inhibition of HIV-1 was determined as the fifty percent cell culture inhibitory concentration (CIC50) in CEMSS cell culture with WT virus (NL4-3).
(§1) In this Example, the antiviral and cellular toxicity of NNRTIs was investigated, using the cytopathic cell killing assay described by Yang (Yang et al., “Characteristics of a Group of Non-nucleoside Reverse Transcriptase Inhibitors with Structural Diversity and Potent Anti-Human Immunodeficiency Virus Activity,” Leukemia 9:S75-S85 [1995]). Briefly, in this method cells (e.g., the CEM-SS cell line, available from the NIAID AIDS Research and Reference Program [ARRRP]) were seeded at a density of 5×10^3 cells/well, into the wells of a 96-well microtiter plate. The cells were then infected with HIV virus (either mutant or WT), at a multiplicity of infection (MOI) previously determined to provide complete cell killing by 6 days of culture post-infection (e.g., MOI of 0.01-0.05). Each of the HIV isolates was pre-titered to induce equivalent levels of infection based on cell killing or virus production, prior to their use in these assays. A range of test compound concentrations was added to the wells in triplicate (e.g., serial half-log dilutions) to evaluate inhibition of HIV infection. Controls for each assay included drug controls (drug colorimetric control wells), drug cytotoxicity control wells (cells with drug), virus control wells (cells with virus), and cell viability controls (cells only). Positive control drugs (e.g. AZT and ddC) were also run in parallel.
(§2) After six days of incubation at 37° C., cell viability was determined spectrophotometrically at 450 nm for each well, using the metabolic reduction of XTT to a soluble colored formazan. (See, Gartner and Popovic, “Virus Isolation and Production, in Aldovini and Walker (eds.), Techniques in HIV Research, Stockton Press, NY, pp. […] [1991]; and Nara and Fischinger, “Quantitative Infectivity Assay for HIV-1 and HIV-2, ” Nature 332:469-470 [1988]).
(§3) The in vitro therapeutic index (TI50) was defined as the fold-difference between the EC50 and IC50. The results for the various compounds are included in FIGS. 8 and 19.

Data set [1] has as its system WT and HIV-1 variants containing amino acid substitutions in RT. In kind it is cell-based. The note with it: for cross-resistance profile, result in words: cytopathic cell killing assay, NNRTI-resistant HIV isolates.
Excerpt: In these Tables, antiviral data are reported as the quantity of drug in μM required to reduce cell killing or virus production by 50% (EC50). The various HIV isolates tested in the Figures are those corresponding to wild-type virus (NL4-3) and the other strains listed by their RT mutations. The three 4×AZT isolates included in the Figures represent AZT drug-resistant variants.
Briefly, in this method cells (e.g., the CEM-SS cell line, available from the NIAID AIDS Research and Reference Program [ARRRP]) were seeded at a density of 5×10^3 cells/well, into the wells of a 96-well microtiter plate. The cells were then infected with HIV virus (either mutant or WT), at a multiplicity of infection (MOI) previously determined to provide complete cell killing by 6 days of culture post-infection (e.g., MOI of 0.01-0.05). Each of the HIV isolates was pre-titered to induce equivalent levels of infection based on cell killing or virus production, prior to their use in these assays. A range of test compound concentrations was added to the wells in triplicate (e.g., serial half-log dilutions) to evaluate inhibition of HIV infection. Controls for each assay included drug controls (drug colorimetric control wells), drug cytotoxicity control wells (cells with drug), virus control wells (cells with virus), and cell viability controls (cells only). Positive control drugs (e.g. AZT and ddC) were also run in parallel.
as §2
Antiviral and toxicity data were reported as the quantity of drug required to inhibit 50% of virus-induced cell killing or virus production (EC50), and the quantity of drug required to […] (IC50). The in vitro therapeutic index (TI50) was defined as the fold-difference between the EC50 and IC50.

Another data set has as its system HIV-1 isolate A98G. The data set can be described thus: Cytopathic cell killing assay, MT-4 cells, isolate A98G. The class given is cell-based. The note with it: Human immunodeficiency virus 1, MT4, read-out: EC50, isolate A98G, Table 8; MT-4 cells.
Excerpt: (§4) The various HIV isolates tested in the Figures are those corresponding to wild-type virus (NL4-3) and the other strains listed by their RT mutations. The three 4×AZT isolates included in the Figures represent AZT drug-resistant variants. For example, the 4×AZT/L100I isolate has five mutations: four mutations confer increased resistance to AZT, and the other mutation is located within the NNRTI binding pocket. TZB and nevir. (nevirapine) are two well-known NNRTIs, included in this experiment for comparison purposes.
as §1, §2, §3

The next data set deals with HIV-1 WT RT (Human immunodeficiency virus type 1 group M subtype B, UniProt P03366). In words: biochemical. The class given is biochemical.
The next data set deals with HIV-1 isolate Y181C. The data set can be described thus: Cytopathic cell killing assay, MT-4 cells, isolate Y181C. The conditions noted are these: Human immunodeficiency virus 1, MT4, read-out: EC50, isolate Y181C, Table 9; MT-4 cells. In kind it is cell-based.
Excerpt: as §4, §1, §2, §3

Data set [2] concerns HIV-1 isolate 4xAZT/Y181C. In words: Cytopathic cell killing assay, MT-4 cells, isolate 4xAZT/Y181C. In kind it is cell-based.
Excerpt: as §4, §1, §2, §3

A further data set relates to HIV-1 isolate K103N. The data set can be described thus: Cytopathic cell killing assay, MT-4 cells, isolate K103N. The class given is cell-based. The note with it: Human immunodeficiency virus 1, MT4, read-out: EC50, isolate K103N, Table 4; MT-4 cells.
Excerpt: as §4, §1, §2, §3

A further data set relates to HIV-1 isolate K101E. In words: Cytopathic cell killing assay, MT-4 cells, isolate K101E. In kind it is cell-based. The conditions noted are these: Human immunodeficiency virus 1, MT4, read-out: EC50, isolate K101E, Table 4; MT-4 cells.
Excerpt: as §4, §1, §2, §3

A further data set concerns HIV-1 isolate V108I. The data set can be described thus: Cytopathic cell killing assay, MT-4 cells, isolate V108I. The class given is cell-based. The conditions noted are these: Human immunodeficiency virus 1, MT4, read-out: EC50, isolate V108I, Table 4; MT-4 cells.
Excerpt: as §4, §1, §2, §3

For a further data set, the system named is HIV-1 isolate Y188C. The data set can be described thus: Cytopathic cell killing assay, MT-4 cells, isolate Y188C. The class given is cell-based.
Excerpt: as §4, §1, §2, §3

The subject of a further data set is HIV-1 isolate Y188H. In words: Cytopathic cell killing assay, isolate Y188H. The class given is cell-based. The note with it: Human immunodeficiency virus 1, read-out: EC50, isolate Y188H.
Excerpt: as §4, §1, §2, §3

Setting [3] is: Table 7, drug concentration required to reduce cell killing or virus production by 50%, WT.
[4] abbreviates: Table 11, CEMSS/NL4-3, NRVC = no reduction in viral CPE.

Structures are written as SMILES. Like-named read-outs stand apart in the source and are kept apart here.

In turn, `CC(=O)N(C)c1cccc2c1nc(-c1c(F)cccc1F)n2Cc1c(F)cccc1F` [Compound 5011, 1-(2,6-difluorobenzyl)-2-(2,6-difluorophenyl)-4-(N-methylacetamido)benzimidazole] showed a melting point of 155 to 156 °C. Further, the EC50 in the data set with HIV-1 WT virus (NL4-3) (setting [3]) came to 20 nM. In the data set on HIV-1 WT virus (NL4-3) (text b130, cytopathic cell killing assay, WT), the EC50 was found to be 20 nM. For the same compound, the “fold more potent than the 4-methyl or 4-amino compounds (EC50)” value in the data set with HIV-1 WT virus (NL4-3) (cytopathic cell killing assay) is given as 20 fold. The “cross-resistance profile, result in words” value in [1] (listed as N-methyl acetamido) is “inhibit HIV-1 better than TZB”. Moreover, the “cross-resistance profile, result in words” value in data set [1] (listed as N-methylacetamido) is “equal or better against the various variants than nevirapine”. In addition, in the data set on HIV-1 isolate A98G, the EC50 is 100 nM. At HIV-1 WT RT, this compound had an IC50 of 320 nM. Also, the “% inhibn (1 μM)” value at HIV-1 WT RT (Table 7, 1 μM drug, WT HIV-1 RT) is on record as 77%.
Turning to `Cc1cccc2c1nc(-c1c(F)cccc1F)n2Cc1c(F)cccc1F` [Compound 33, 1-(2,6-difluorobenzyl)-2-(2,6-difluorophenyl)-4-methylbenzimidazole], the melting point was in the range of 182 to 186 °C. In addition, in the data set with HIV-1 WT virus (NL4-3) (FIGS. 10-12), the “cytotoxicity and anti-viral effect, summary graph, result in words” value is recorded as “very effective therapeutic dose”. In addition, the EC50 in the data set on HIV-1 WT virus (NL4-3) (setting [3]) was determined as 440 nM. The EC50 in the data set with HIV-1 WT virus (NL4-3) (setting [4]) turned out to be 440 nM. Besides, in the data set on HIV-1 WT virus (NL4-3) (difference between efficacy of the drug and cellular toxicity, FIG. 10), the “therapeutic index at 50% (TC50)” value is “greater than one log in concentration”. For the same compound, in data set [1] (Table 4 isolates), the “fold better in the inhibition of the various viral isolates than des-methyl analog 26” value is 3- to 4 fold. Moreover, the EC50 with HIV-1 isolate Y181C stood at 4300 nM. Besides, in [2] (read-out: EC50, isolate 4XAZT/Y181C, Table 9, MT-4 cells), the EC50 stood at 3500 nM. Further, the EC50 in the data set with HIV-1 isolate K103N came out at 8100 nM. Also, the EC50 in the data set with HIV-1 isolate K101E was 16700 nM. Besides, the EC50 in the data set on HIV-1 isolate V108I is 2800 nM. In the data set with HIV-1 isolate Y188C (Human immunodeficiency virus 1, MT4, read-out: EC50, isolate Y188C, Table 4, MT-4 cells), the EC50 was 2.3 µM. For the same compound, the EC50 in the data set on HIV-1 isolate Y188C (Human immunodeficiency virus 1, MT4, read-out: EC50, isolate Y188C, Table 10, values in μM) amounted to 2.3 µM.
For `Fc1cccc(F)c1Cn1c(-c2c(F)cccc2F)nc2ccccc21` [Compound 26, 1-(2,6-difluorobenzyl)-2-(2,6-difluorophenyl)benzimidazole], the EC50 in the data set on HIV-1 WT virus (NL4-3) (setting [4]) was 1700 nM; in data set [2] (Human immunodeficiency virus 1, MT4, read-out: EC50, isolate 4XAZT/Y181C) it was above 20000 nM. Besides, the inhibition at 1 µM at HIV-1 WT RT (Table 5, 1 μM drug, WT HIV-1 RT, average of two experiments done in triplicates, read-out: % inhibn (1 μM)) came to 50%. Besides, the “RT inhibition, result in words” value on HIV-1 WT RT (WT RT) was “four-fold increase in inhibitory activity”.
With `O=[N+]([O-])c1cccc2c1nc(-c1c(F)cccc1F)n2Cc1c(F)cccc1F` [Compound 3100, 1-(2,6-difluorobenzyl)-2-(2,6-difluorophenyl)-4-nitrobenzimidazole], the melting point worked out at 169 °C. In addition, in the data set with HIV-1 WT virus (NL4-3) (setting [3]), the EC50 was 2400 nM. In the data set on HIV-1 isolate Y188H, the EC50 is above 50000 nM.
